Reference: PubChem BioAssay (NCI)
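Cultured in 96-well plates, cells were exposed to test compound for 48 hours across five concentrations. At the TGI there is no net growth.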

Key:
Assay in all cases: NCI tumour cell line growth inhibition, 48 h
786-0 renal = test system: 786-0 renal
A498 renal = test system: A498 renal
A549 NSCLC = test system: A549 NSCLC
ACHN renal = test system: ACHN renal
BT-549 breast = test system: BT-549 breast
CAKI-1 renal = test system: CAKI-1 renal
CCRF-CEM leukemia = test system: CCRF-CEM leukemia
COLO 205 colon = test system: COLO 205 colon
DU-145 prostate = test system: DU-145 prostate
EKVX NSCLC = test system: EKVX NSCLC
HCC-2998 colon = test system: HCC-2998 colon
HCT-116 colon = test system: HCT-116 colon
HCT-15 colon = test system: HCT-15 colon
HL-60(TB) leukemia = test system: HL-60(TB) leukemia
HOP-62 NSCLC = test system: HOP-62 NSCLC
HOP-92 NSCLC = test system: HOP-92 NSCLC
HS 578T breast = test system: HS 578T breast
HT29 colon = test system: HT29 colon
IGROV1 ovarian = test system: IGROV1 ovarian
K-562 leukemia = test system: K-562 leukemia
KM12 colon = test system: KM12 colon
LOX IMVI melanoma = test system: LOX IMVI melanoma
M14 melanoma = test system: M14 melanoma
MALME-3M melanoma = test system: MALME-3M melanoma
MCF7 breast = test system: MCF7 breast
MDA-MB-231 breast = test system: MDA-MB-231 breast
MDA-MB-435 = test system: MDA-MB-435
MDA-N = test system: MDA-N
MOLT-4 leukemia = test system: MOLT-4 leukemia
NCI-H226 lung = test system: NCI-H226 lung
NCI-H23 lung = test system: NCI-H23 lung
NCI-H460 lung = test system: NCI-H460 lung
NCI-H522 lung = test system: NCI-H522 lung
NCI/ADR-RES ovarian = test system: NCI/ADR-RES ovarian
OVCAR-3 ovarian = test system: OVCAR-3 ovarian
OVCAR-4 ovarian = test system: OVCAR-4 ovarian
OVCAR-5 ovarian = test system: OVCAR-5 ovarian
OVCAR-8 ovarian = test system: OVCAR-8 ovarian
PC-3 prostate = test system: PC-3 prostate
RPMI-8226 leukemia = test system: RPMI-8226 leukemia
RXF 393 renal = test system: RXF 393 renal
SF-268 CNS = test system: SF-268 CNS
SF-295 CNS = test system: SF-295 CNS
SF-539 CNS = test system: SF-539 CNS
SK-MEL-2 melanoma = test system: SK-MEL-2 melanoma
SK-MEL-28 melanoma = test system: SK-MEL-28 melanoma
SK-MEL-5 melanoma = test system: SK-MEL-5 melanoma
SK-OV-3 ovarian = test system: SK-OV-3 ovarian
SN12C renal = test system: SN12C renal
SNB-19 CNS = test system: SNB-19 CNS
SNB-75 CNS = test system: SNB-75 CNS
SR leukemia = test system: SR leukemia
SW-620 colon = test system: SW-620 colon
T-47D breast = test system: T-47D breast
TK-10 renal = test system: TK-10 renal
U251 CNS = test system: U251 CNS
UACC-257 melanoma = test system: UACC-257 melanoma
UACC-62 melanoma = test system: UACC-62 melanoma
UO-31 renal = test system: UO-31 renal
DLD-1 colon = test system: DLD-1 colon
DMS 273 small cell lung = test system: DMS 273 small cell lung
LXFL 529 NSCLC = test system: LXFL 529 NSCLC
M19-MEL melanoma = test system: M19-MEL melanoma
SNB-78 CNS = test system: SNB-78 CNS

`C=C(C)C(CC=C(C)C)Cc1c(O)cc(OC)c2c1OC(c1ccc(O)cc1O)C(O)C2=O` (configuration not stated) gave a TGI (786-0 renal) of 32.3 µM, a TGI (A498 renal) of 30.7 µM and a TGI (A549 NSCLC) of 39.4 µM. The TGI (ACHN renal) was 43.2 µM, the TGI (BT-549 breast) was 28.5 µM and the TGI (CAKI-1 renal) was 26.6 µM. The TGI (CCRF-CEM leukemia) was greater than 100 µM, the TGI (COLO 205 colon) was 30 µM and the TGI (DU-145 prostate) was 32.4 µM. It also gave a TGI (EKVX NSCLC) of 31.1 µM, a TGI (HCC-2998 colon) of 30.6 µM and a TGI (HCT-116 colon) of 34.5 µM. The TGI (HCT-15 colon) was 31.1 µM, the TGI (HL-60(TB) leukemia) was greater than 100 µM and the TGI (HOP-62 NSCLC) was 31 µM. The TGI (HOP-92 NSCLC) was 28 µM, the TGI (HS 578T breast) was 79.4 µM and the TGI (HT29 colon) was 38.2 µM. The TGI (IGROV1 ovarian) was 28.1 µM, the TGI (K-562 leukemia) was greater than 100 µM and the TGI (KM12 colon) was 24.6 µM. For the same compound, the TGI (LOX IMVI melanoma) was 36.1 µM, the TGI (M14 melanoma) was 36.5 µM and the TGI (MALME-3M melanoma) was 31.8 µM. For the same compound, the TGI (MCF7 breast) was 27 µM, the TGI (MDA-MB-231 breast) was 34.1 µM and the TGI (MDA-MB-435) was 35.9 µM. It also gave a TGI (MDA-N) of 28.1 µM, a TGI (MOLT-4 leukemia) greater than 100 µM and a TGI (NCI-H226 lung) of 44.7 µM. For the same compound, the TGI (NCI-H23 lung) was 33.6 µM, the TGI (NCI-H460 lung) was 33.9 µM and the TGI (NCI-H522 lung) was 34.2 µM. It also gave a TGI (NCI/ADR-RES ovarian) of 55.8 µM, a TGI (OVCAR-3 ovarian) of 34.8 µM and a TGI (OVCAR-4 ovarian) of 38.4 µM. For the same compound, the TGI (OVCAR-5 ovarian) was 32.4 µM, the TGI (OVCAR-8 ovarian) was 31.2 µM and the TGI (PC-3 prostate) was 26.3 µM. It also gave a TGI (RPMI-8226 leukemia) greater than 100 µM, a TGI (RXF 393 renal) of 43.6 µM and a TGI (SF-268 CNS) of 61.1 µM. It also gave a TGI (SF-295 CNS) of 28.2 µM, a TGI (SF-539 CNS) of 31.4 µM and a TGI (SK-MEL-2 melanoma) of 34.7 µM. For the same compound, the TGI (SK-MEL-28 melanoma) was 56.2 µM, the TGI (SK-MEL-5 melanoma) was 33.1 µM and the TGI (SK-OV-3 ovarian) was 30.5 µM. The TGI (SN12C renal) was 35.2 µM, the TGI (SNB-19 CNS) was 29.3 µM and the TGI (SNB-75 CNS) was 31.5 µM. The TGI (SR leukemia) was greater than 100 µM, the TGI (SW-620 colon) was 30.3 µM and the TGI (T-47D breast) was 32.4 µM. For the same compound, the TGI (TK-10 renal) was 38.4 µM, the TGI (U251 CNS) was 27.6 µM and the TGI (UACC-257 melanoma) was 32.1 µM. The TGI (UACC-62 melanoma) was 36.4 µM and the TGI (UO-31 renal) was 29.5 µM.
For `CC(=O)NC1=C(C)C(=O)c2c(nc3n2CCC3OC(=O)CCl)C1=O` (configuration not stated), the TGI (786-0 renal) was 21.6 µM, the TGI (A498 renal) was 27.4 µM and the TGI (A549 NSCLC) was 26 µM. For the same compound, the TGI (ACHN renal) was 42.5 µM, the TGI (CAKI-1 renal) was 35.2 µM and the TGI (CCRF-CEM leukemia) was 4.52 µM. It also gave a TGI (COLO 205 colon) of 34.7 µM, a TGI (DLD-1 colon) of 29.7 µM and a TGI (DMS 273 small cell lung) of 33.6 µM. It also gave a TGI (EKVX NSCLC) of 20.6 µM, a TGI (HCC-2998 colon) of 25.7 µM and a TGI (HCT-116 colon) of 5.57 µM. It also gave a TGI (HL-60(TB) leukemia) of 8.58 µM, a TGI (HOP-62 NSCLC) of 31.6 µM and a TGI (HOP-92 NSCLC) of 5.15 µM. For the same compound, the TGI (HT29 colon) was 30.3 µM, the TGI (IGROV1 ovarian) was 25.2 µM and the TGI (K-562 leukemia) was 5.73 µM. For the same compound, the TGI (KM12 colon) was 29.5 µM, the TGI (LOX IMVI melanoma) was 16.8 µM and the TGI (LXFL 529 NSCLC) was 5.12 µM. For the same compound, the TGI (M14 melanoma) was 32.2 µM, the TGI (M19-MEL melanoma) was 26.3 µM and the TGI (MALME-3M melanoma) was 16.6 µM. For the same compound, the TGI (MOLT-4 leukemia) was 4.48 µM, the TGI (NCI-H226 lung) was 7.01 µM and the TGI (NCI-H23 lung) was 26.1 µM. The TGI (NCI-H460 lung) was 56.2 µM, the TGI (NCI-H522 lung) was 11.9 µM and the TGI (OVCAR-3 ovarian) was 3.68 µM. It also gave a TGI (OVCAR-4 ovarian) of 4.19 µM, a TGI (OVCAR-5 ovarian) of 25.5 µM and a TGI (OVCAR-8 ovarian) of 16.6 µM. The TGI (RPMI-8226 leukemia) was greater than 100 µM, the TGI (RXF 393 renal) was 18.1 µM and the TGI (SF-268 CNS) was 21.9 µM. The TGI (SF-295 CNS) was 29.9 µM, the TGI (SF-539 CNS) was 6.47 µM and the TGI (SK-MEL-2 melanoma) was 10.2 µM. The TGI (SK-MEL-28 melanoma) was 31.4 µM, the TGI (SK-MEL-5 melanoma) was 25.4 µM and the TGI (SK-OV-3 ovarian) was 37.9 µM. It also gave a TGI (SN12C renal) of 24.1 µM, a TGI (SNB-19 CNS) of 32.1 µM and a TGI (SNB-75 CNS) of 30.1 µM. The TGI (SNB-78 CNS) was 6.5 µM, the TGI (SR leukemia) was greater than 100 µM and the TGI (SW-620 colon) was 22.6 µM. For the same compound, the TGI (TK-10 renal) was 43.1 µM, the TGI (U251 CNS) was 11.8 µM and the TGI (UACC-257 melanoma) was 25.5 µM. For the same compound, the TGI (UACC-62 melanoma) was 6.33 µM and the TGI (UO-31 renal) was 31.9 µM.
